Assay results as given in ChEMBL document CHEMBL3616439, “Synthesis, α-glucosidase inhibitory and molecular docking studies of prenylated and geranylated flavones, isoflavones and chalcones” (Bioorg Med Chem Lett, 2015).
Active and inactive are the calls of the source. The rule behind the calls is not given here.

Assays:
[1] = Inhibition of baker's yeast alpha-glucosidase using p-nitrophenyl-alpha-D-glucopyranoside as substrate after 30 mins by spectrophotometric analysis; design: species or system Saccharomyces cerevisiae
Saccharomyces cerevisiae [2] = test: Competitive inhibition of baker's yeast alpha-glucosidase using p-nitrophenyl-alpha-D-glucopyranoside as substrate at 1.5 to 2 uM preincubated for 30 mins followed by substrate addition by Lineweaver-Burk plot analysis
Saccharomyces cerevisiae [3] = test: Mixed-type inhibition of baker's yeast alpha-glucosidase using p-nitrophenyl-alpha-D-glucopyranoside as substrate at 4 to 6 uM preincubated for 30 mins followed by substrate addition by Lineweaver-Burk plot analysis
Saccharomyces cerevisiae [4] = test: Potency index, ratio of acarbose IC50 to compound IC50 for baker's yeast alpha-glucosidase
Saccharomyces cerevisiae [5] = test: Competitive inhibition of baker's yeast alpha-glucosidase using p-nitrophenyl-alpha-D-glucopyranoside as substrate at 1 to 2 uM preincubated for 30 mins followed by substrate addition by Lineweaver-Burk plot analysis

IC50 [1] [µM]	Structure (SMILES)	other results
50.1	O=c1c(-c2ccc(O)cc2)coc2cc(O)cc(O)c12 [GENISTEIN]	
1.15	CC(C)=CCC/C(C)=C/Cc1c(O)cc(O)c2c(=O)c(O)c(-c3ccc(O)c(O)c3)oc12	inhibition (Saccharomyces cerevisiae [2]): Active
5.3	CC(C)=CCc1cc(C(=O)/C=C/c2ccc(O)cc2)c(O)cc1O [BROUSSOCHALCONE B]	
16.3	CC(C)=CCC/C(C)=C/Cc1cc(C(=O)/C=C/c2ccc(O)cc2)c(O)cc1O	
6.9	CC(C)=CCc1cc(C(=O)/C=C/c2ccc(O)cc2)c(O)c(CC=C(C)C)c1O [MEDICAGENIN]	
9	CC(C)=CCC/C(C)=C/Cc1cc(C(=O)/C=C/c2ccc(O)cc2)c(O)c(CC=C(C)C)c1O	
6.26	CC(C)=CCC/C(C)=C/Cc1c(O)cc(O)c2c(=O)c(-c3ccc(O)cc3)coc12	inhibition (Saccharomyces cerevisiae [3]): Active
> 100	COc1ccc(/C=C/C(=O)c2cc(CC=C(C)C)c(OC)cc2OC)cc1	
> 100	COc1ccc(-c2coc3c(C/C=C(\C)CCC=C(C)C)c(OC)cc(OC)c3c2=O)cc1	
51.3	C[C@H]1O[C@H](O[C@H]2[C@H](O)[C@@H](O)[C@@H](O[C@H]3[C@H](O)[C@@H](O)C(O)O[C@@H]3CO)O[C@@H]2CO)[C@H](O)[C@@H](O)[C@@H]1N[C@H]1C=C(CO)[C@@H](O)[C@H](O)[C@H]1O (stereo partly drawn) [ACARBOSE]	
> 100	CC(C)=CCc1c(O)cc(O)c2c(=O)c(-c3ccc(O)cc3)coc12	
> 100	COc1ccc(-c2coc3c(CC=C(C)C)c(OC)cc(O)c3c2=O)cc1	
4.38	CC(C)=CCc1c(O)cc(O)c2c(=O)c(O)c(-c3ccc(O)c(O)c3)oc12	
> 100	COc1ccc(-c2coc3c(CC=C(C)C)c(OC)cc(OC)c3c2=O)cc1	
> 100	O=C(/C=C/c1ccc(O)cc1)c1ccc(O)cc1O [ISOLIQUIRITIGENIN]	
0.9	CC(C)=CCC/C(C)=C/Cc1cc(C(=O)/C=C/c2ccc(O)cc2)c(O)c(C/C=C(\C)CCC=C(C)C)c1O	Ratio IC50 (Saccharomyces cerevisiae [4]): 50; inhibition (Saccharomyces cerevisiae [5]): Active
11.5	CC(C)=CCC/C(C)=C/Cc1c(O)c(CC=C(C)C)cc(C(=O)/C=C/c2ccc(O)cc2)c1O	
> 100	COc1ccc(-c2coc3c(C/C=C(\C)CCC=C(C)C)c(OC)cc(O)c3c2=O)cc1	

Structure (SMILES)	IC50 [1] [µM]	other results
O=c1c(O)c(-c2ccc(O)c(O)c2)oc2cc(O)cc(O)c12 [QUERCETIN]	11	
